One block for each molecule: values may come before it.
Tests used:
ARH3 = biological target: T1, ARH3 (Mus musculus, UniProt Q8CG72); experiment: Inhibition of ARH3-catalyzed hydrolysis of O-acetyl-ADP-ribose; format: biochemical
T1 construct: The entire coding regions were ligated into pGEX-2T expression vector; GST (N); made in house; host or cells: E. coli BL21 Rosetta
T1 sequence (Q8CG72 1-370): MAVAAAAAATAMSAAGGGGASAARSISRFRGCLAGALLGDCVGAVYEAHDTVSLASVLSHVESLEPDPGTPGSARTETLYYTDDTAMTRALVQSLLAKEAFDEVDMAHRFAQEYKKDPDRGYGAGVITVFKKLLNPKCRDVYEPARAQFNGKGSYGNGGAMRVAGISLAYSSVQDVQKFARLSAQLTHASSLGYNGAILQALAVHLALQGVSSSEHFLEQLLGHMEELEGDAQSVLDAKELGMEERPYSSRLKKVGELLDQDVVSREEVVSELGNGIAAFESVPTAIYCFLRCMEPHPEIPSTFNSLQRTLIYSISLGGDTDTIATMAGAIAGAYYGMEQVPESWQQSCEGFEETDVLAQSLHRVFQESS
Protocol: FIG. 15A is a graph of the results from an assay with 2 pmol of ARH3 and the indicated amount of ADP-ribose (●) or β-NAD (∘) in 200 μl for 2 h at 30° C., as described in FIG. 11B. FIG. 15B is a graph of the inhibition of ARH3 hydrolysis by ADP-ribose data schematized for Lineweaver-Burk plot.
Mouse ARH3 (2 pmol) and 2.5 μM O-acetyl-[^14C]ADP-ribose (5,000 cpm) in 200 μl of buffer containing 50 mM potassium phosphate (pH 7.0), 10 mM MgCl2 and 5 mM DTT were incubated for 2 h at 30° C., before separation of substrate and products using RP-HPLC as described below.
Hydrolysis of O-acetyl-[^14C]ADP-ribose catalyzed by ARH3. Assays containing the indicated concentration of O-acetyl-[^14C]-ADP-ribose (0.1 to 2 nmol, 1,000 to 20,000 cpm) and 1.5 pmol of ARH3 in 200 μl of buffer (50 mM KPO4 (pH 7.0), 10 mM MgCl2, 5 mM DTT) were incubated at 30° C. for 20 min. Substrate and products were separated using RP-HPLC. Amounts of product were corrected for ADP-ribose produced in the absence of ARH3 before calculation of hydrolysis rates.
ADP-ribose inhibited ARH3-catalyzed hydrolysis of 2.5 μM O-acetyl-ADP-ribose, ˜50% at a concentration of ca. 10 μM.

[1] = Rafty et al. (2002), cited from earlier work
[2] = Poly(ADP-ribose) hydrolysis (autoradiography, high resolution PAGE, HPLC); format: biochemical; details: [32P]poly(ADP-ribose) or poly(ADP-ribose)PARP; 37° C.; autoradiography / PAGE / HPLC
Protocol: Poly(ADP-ribose) hydrolysis by autoradiography. [^32P]poly(ADP-ribose)PARP (500 ng of PARP with poly(ADP-ribose) was incubated (37° C., 2 h) with 2 μM ARH in 25 μl of 50 mM potassium phosphate buffer, pH 7.5, with or without 10 mM MgCl2 and/or 5 mM DTT. Reactions were stopped by adding 6 μl of 5× Laemmli buffer. Samples (20 μl) of proteins were separated by SDS-PAGE in 4-20% gels and transferred to nitrocellulose membranes that were exposed to X-ray film (Kodak) for 10 h.
Hydrolysis of poly(ADP-ribose) by PARG and ARH3. Purified [^32P] poly(ADP-ribose) (5.5×10^5 cpm, ˜300 nM ADP-ribose) was incubated for the indicated time at 37° C. in 25 μl of 50 mM potassium phosphate, pH 7.5, containing 10 mM MgCl2 and 5 mM DTT with enzyme or other additions as indicated and terminated by addition of 25 μl of 2× electrophoresis buffer (Invitrogen). [^32P]AMP was generated by incubation (37° C., 3 h) of 10 μM [^32P] NAD (10 μCi/reaction) with pyrophosphatase (40 units/mg from SIGMA, 1 mg/ml) in 25 μl of 50 mM KPO4, pH 7.5, and 10 mM MgCl2. [^32P] […]
Poly(ADP-ribose)PARP was used as substrate to assay potential poly(ADP-ribose) hydrolase activities of recombinant ARH1, 2 or 3. […] Fractions (1 ml) were collected for liquid scintillation counting to quantify [^14C]ADP-ribose, which was eluted in fractions from 34 min to 43 min. […]

Inhibition of ARH3-catalyzed hydrolysis of O-acetyl-ADP-ribose (ARH3; 2.5 μM O-acetyl-ADP-ribose, inhibitor at ca. 10 μM, 2 pmol ARH3, 2 h at 30° C.): ~50%
Ki (ARH3; Lineweaver-Burk plot, substrate O-acetyl-ADP-ribose): 8.6 µM
Molecule: Nc1ncnc2c1ncn2[C@@H]1O[C@H](COP(=O)(O)OP(=O)(O)OC[C@H]2OC(O)[C@H](O)[C@@H]2O)[C@@H](O)[C@H]1O (some centres unmarked) [ADP-ribose]

Molecule: murine Nudix: murine Nudix family ADP-ribose pyrophosphatase (Rafty et al. 2002)
kcat, O-acetyl-ADP-ribose [1]: 0.78 ± 0.18 s⁻¹
Km ([1]; read-out: Km for O-acetyl-ADP-ribose): 45 ± 0.9 µM

Molecule: ARH1: 39-kDa ADP-ribose-(arginine) protein hydrolase, recombinant mouse or human
Poly(ADP-ribose) hydrolysis (in words) [2]: did not

Source: patent US7670806B2, “ADP-ribosyl acceptor hydrolase 3 (ARH3) polypeptides and methods of use” (The United States of America as represented by the …, priority 2005, dated 2010)
